Patent publication US20060127381A1, “Live bacterial preparation of bacillus coagulans for the treatment of ulcerative colitis, method for producing the same and use thereof” (priority 2004, published 2006)
Marks after values point to notes of the source that are not given here.

Tested on: experimental ulcerative colitis
Assay: DSS modeling and treatment of experimental ulcerative colitis in rat
Assay type: in vivo, SD rat
Settings: SASP 0.02 g/ml i.g., twice a day for 21 days
Experimental: The producing method of live bacteria preparation of Bacillus coagulans for the treatment of ulcerative colitis comprises following steps: incubating Bacillus coagulans by fermentation; drying bacteria slurry after centrifugation to obtain live bacteria powder, which is then prepared as suitable dosage forms. Ulcerative colitis is characterized in that pathological change mostly occurs at rectum and sigmoid flexure, or throughout the whole colon. A microscopic examination of colon can show mucosal blooding, edema, erosion or superficial ulcertion on affected intestine with mucus and inflammatory exudate covered thereon. Bleeding, inflammatory cell infiltration, epithelial cell decreasing, crypt collapsing and distorting, abscess formation are also often found in microscopic examination. Chronic ulcer may heal to form scar or pseudopolyp. Experimental study is to administrate dextran sodium sulfate (DSS) to SD rat by i.g. and rectal injection to induce experimental ulcerative colitis model, and then subject the modeled rat to experimental treatment with a live bacterial tablet of Bacillus coagulans, whereby the treatment effect of tablet is evaluated. The use is to apply the live bacterial tablet of Bacillus coagulans to clinically treat patients suffering from ulcerative colitis, whereby the efficacy and safety of the live bacterial preparation for UC patients is evaluated.
60 rats were kept under a sterile environment before test. Normal intestinal flora was taken from stools in the rats' anuses and incubated. 10 rats were taken as normal control and other 50 rats as experimental group. According a modified UC rat modeling method (Xiaoping Wu etc., Chinese Journal of Digestion, Vol. 23(5):305, 2003), 3% dextran sodium sulfate (DSS) solution was i.g. administrated to rats with empty stomachs (1 ml/100 g), once a day for 7 days. At the last time, 1 ml/rat of DSS was additionally injected into recta through anuses. After 7 days, stools were taken for flora analysis. 10 rats were then sacrificed and colons were removed by laparocolectomy. The wet weights of colons were measured (g/100 g body weight). The colons was fixed with formaldehyde and stained with alcian blue solution (Sino-American Biotec). The point counts of ulcer and erosion parts were observed by naked eye. Areas (cm^2) of the largest stained blue points were measured with calipers. After the confirmation of UC formation, rats were divided into 4 groups, 10 rats per group. The rats were administrated i.g. with live bacteria tablet of Bacillus coagulans(BC) (10^7 cfU/ml, 10^6 cfU/ml), 0.02 g/ml salicylazosulfapyridine (SASP) and normal saline solution (NS), respectively, twice a day for 21 days, afterwhich the stools were taken for flora analysis. Thereafter, all of the rats were sacrificed. Colon specimens were treated according to above method and corresponding indicators were determined. In addition, intestinal tissue masses were sampled to prepare 5% homogenates, which were determined for their activities of myeloperoxidase (MPO) (U/g·wet slice) with myeloperoxidase test kit (Nanjing JianCheng Bioengineering Institute) by ultraviolet spectrometry (Beijing Technical Application Institute).
The intestinal flora was incubated and analyzed as follows. Fresh stools were extruded out from rats' anuses under sterile condition before or after modeling and after treatment, respectively. […]

## O=C(O)c1cc(/N=N/c2ccc(S(=O)(=O)Nc3ccccn3)cc2)ccc1O [SASP, salicylazosulfapyridine]
  Intestinal wet weight (g/100 g body weight): 0.54 ± 0.05**^Δ g/100 g body weight
  Ulcer or erosion points, Count of Points: 2.20 ± 0.79**^ΔΔ
  Ulcer or erosion points, area (cm^2): 0.22 ± 0.18**^Δ cm^2
DSS-modeled rats
  Body weight (g) After treatment: 264.00 ± 13.50 g
Intestinal tissue homogenate
  MPO activity (U/g wet weight): 0.20 ± 0.10**^ΔΔ U/g wet weight
